Species: Rattus norvegicus
Assay: DrugMatrix - Regimen: Daily Repeat
Format: toxicity, organism-based, Sprague-Dawley
Parameters: regimen Daily Repeat, gender Male, age 6-8 weeks
Settings: in vivo, po, route oral GAVAGE, vehicle 100 % WATER; for ABSOLUTE BASOPHIL / ABSOLUTE EOSINOPHIL / ABSOLUTE LYMPHOCYTE / ABSOLUTE MONOCYTE / ABSOLUTE SEGMENTED NEUTROPHIL / BASOPHIL / EOSINOPHIL / ERYTHROCYTE COUNT / HEMATOCRIT / HEMOGLOBIN / LEUKOCYTE COUNT / LYMPHOCYTE / MEAN CORPUSCULAR HEMOGLOBIN / MEAN CORPUSCULAR HEMOGLOBIN CONCENTRATION / MEAN CORPUSCULAR VOLUME / MONOCYTE / NEUTROPHIL / NUCLEATED RED BLOOD CELLS / PLATELET COUNT: tissue Blood; for ALANINE AMINOTRANSFERASE / ALBUMIN / ALKALINE PHOSPHATASE / ASPARTATE AMINOTRANSFERASE / BLOOD UREA NITROGEN / CARBON DIOXIDE / CHLORIDE / CHOLESTEROL / CREATINE PHOSPHOKINASE / CREATININE / GLUCOSE / LACTATE DEHYDROGENASE / LIPASE / PHOSPHORUS / POTASSIUM / SODIUM / TOTAL BILIRUBIN / TOTAL PROTEIN / URIC ACID: tissue Plasma
[1] = 0 mg/kg, 72 h, dose level Control, time 3 day
[2] = 0 mg/kg, 120 h, dose level Control, time 5 day
[3] = 25 mg/kg, 72 h, dose level Low, time 3 day
[4] = 25 mg/kg, 120 h, dose level Low, time 5 day

CCC1(c2ccccc2)C(=O)NC(=O)NC1=O [PHENOBARBITAL]
ABSOLUTE BASOPHIL [1]: 0 CELLS/uL | ABSOLUTE EOSINOPHIL [1]: 32.5 CELLS/uL | ABSOLUTE LYMPHOCYTE [1]: 9305.83 CELLS/uL | ABSOLUTE MONOCYTE [1]: 43.83 CELLS/uL | ABSOLUTE SEGMENTED NEUTROPHIL [1]: 817.83 CELLS/uL | BASOPHIL [1]: 0% | EOSINOPHIL [1]: 0.33% | ERYTHROCYTE COUNT [1]: 5.38 x10E6/uL | HEMATOCRIT [1]: 33.63% | HEMOGLOBIN [1]: 13.17 G/DL | LEUKOCYTE COUNT [1]: 10.2 x10E3/uL | LYMPHOCYTE [1]: 91.17% | MEAN CORPUSCULAR HEMOGLOBIN [1]: 24.5 pg | MEAN CORPUSCULAR HEMOGLOBIN CONCENTRATION [1]: 39.13 G/DL | MEAN CORPUSCULAR VOLUME [1]: 62.53 fL | MONOCYTE [1]: 0.5% | NEUTROPHIL [1]: 8% | NUCLEATED RED BLOOD CELLS [1]: 0.17 /100WBC | PLATELET COUNT [1]: 858 x10E3/uL | ALANINE AMINOTRANSFERASE [1]: 55.67 u/L | ALBUMIN [1]: 4.07 G/DL | ALKALINE PHOSPHATASE [1]: 337 u/L | ASPARTATE AMINOTRANSFERASE [1]: 84 u/L | BLOOD UREA NITROGEN [1]: 13.17 mg/dL | CARBON DIOXIDE [1]: 34.17 mmol/L | CHLORIDE [1]: 99.33 MEQ/L | CHOLESTEROL [1]: 78.83 mg/dL | CREATINE PHOSPHOKINASE [1]: 576.83 u/L | CREATININE [1]: 0.17 mg/dL | GLUCOSE [1]: 152.67 mg/dL | LACTATE DEHYDROGENASE [1]: 147.83 u/L | LIPASE [1]: 9.5 u/L | PHOSPHORUS [1]: 10.78 mg/dL | POTASSIUM [1]: 6.34 MEQ/L | SODIUM [1]: 144.12 MEQ/L | TOTAL BILIRUBIN [1]: 0.18 mg/dL | TOTAL PROTEIN [1]: 6.08 G/DL | URIC ACID [1]: 0.65 mg/dL | ABSOLUTE BASOPHIL [2]: 0 CELLS/uL | ABSOLUTE EOSINOPHIL [2]: 31.17 CELLS/uL | ABSOLUTE LYMPHOCYTE [2]: 7918.33 CELLS/uL | ABSOLUTE MONOCYTE [2]: 58.33 CELLS/uL | ABSOLUTE SEGMENTED NEUTROPHIL [2]: 725.5 CELLS/uL | BASOPHIL [2]: 0% | EOSINOPHIL [2]: 0.33% | ERYTHROCYTE COUNT [2]: 5.32 x10E6/uL | HEMATOCRIT [2]: 33.53% | HEMOGLOBIN [2]: 13.17 G/DL | LEUKOCYTE COUNT [2]: 8.73 x10E3/uL | LYMPHOCYTE [2]: 90.33% | MEAN CORPUSCULAR HEMOGLOBIN [2]: 24.82 pg | MEAN CORPUSCULAR HEMOGLOBIN CONCENTRATION [2]: 39.33 G/DL | MEAN CORPUSCULAR VOLUME [2]: 63.12 fL | MONOCYTE [2]: 0.67% | NEUTROPHIL [2]: 8.67% | NUCLEATED RED BLOOD CELLS [2]: 0 /100WBC | PLATELET COUNT [2]: 1144.83 x10E3/uL | ALANINE AMINOTRANSFERASE [2]: 60.5 u/L | ALBUMIN [2]: 3.97 G/DL | ALKALINE PHOSPHATASE [2]: 343.17 u/L | ASPARTATE AMINOTRANSFERASE [2]: 80.83 u/L | BLOOD UREA NITROGEN [2]: 15 mg/dL | CARBON DIOXIDE [2]: 31 mmol/L | CHLORIDE [2]: 99.75 MEQ/L | CHOLESTEROL [2]: 71.5 mg/dL | CREATINE PHOSPHOKINASE [2]: 237.17 u/L | CREATININE [2]: 0.17 mg/dL | GLUCOSE [2]: 137 mg/dL | LACTATE DEHYDROGENASE [2]: 146.17 u/L | LIPASE [2]: 11.5 u/L | PHOSPHORUS [2]: 10.13 mg/dL | POTASSIUM [2]: 6 MEQ/L | SODIUM [2]: 145 MEQ/L | TOTAL BILIRUBIN [2]: 0.13 mg/dL | TOTAL PROTEIN [2]: 5.82 G/DL | URIC ACID [2]: 0.62 mg/dL | ABSOLUTE BASOPHIL [3]: 0 CELLS/uL | ABSOLUTE EOSINOPHIL [3]: 0 CELLS/uL | ABSOLUTE LYMPHOCYTE [3]: 9305.33 CELLS/uL | ABSOLUTE MONOCYTE [3]: 110 CELLS/uL | ABSOLUTE SEGMENTED NEUTROPHIL [3]: 784.67 CELLS/uL | BASOPHIL [3]: 0% | EOSINOPHIL [3]: 0% | ERYTHROCYTE COUNT [3]: 5.23 x10E6/uL | HEMATOCRIT [3]: 33.43% | HEMOGLOBIN [3]: 13.03 G/DL | LEUKOCYTE COUNT [3]: 10.2 x10E3/uL | LYMPHOCYTE [3]: 92.33% | MEAN CORPUSCULAR HEMOGLOBIN [3]: 24.97 pg | MEAN CORPUSCULAR HEMOGLOBIN CONCENTRATION [3]: 39 G/DL | MEAN CORPUSCULAR VOLUME [3]: 63.97 fL | MONOCYTE [3]: 0.67% | NEUTROPHIL [3]: 7% | NUCLEATED RED BLOOD CELLS [3]: 0 /100WBC | PLATELET COUNT [3]: 972.33 x10E3/uL | ALANINE AMINOTRANSFERASE [3]: 52.33 u/L | ALBUMIN [3]: 4 G/DL | ALKALINE PHOSPHATASE [3]: 326.67 u/L | ASPARTATE AMINOTRANSFERASE [3]: 74.67 u/L | BLOOD UREA NITROGEN [3]: 12 mg/dL | CARBON DIOXIDE [3]: 35 mmol/L | CHLORIDE [3]: 97.5 MEQ/L | CHOLESTEROL [3]: 87.67 mg/dL | CREATINE PHOSPHOKINASE [3]: 212 u/L | CREATININE [3]: 0.15 mg/dL | GLUCOSE [3]: 146.33 mg/dL | LACTATE DEHYDROGENASE [3]: 153.33 u/L | LIPASE [3]: 12 u/L | PHOSPHORUS [3]: 11.73 mg/dL | POTASSIUM [3]: 6.16 MEQ/L | SODIUM [3]: 143.95 MEQ/L | TOTAL BILIRUBIN [3]: 0.2 mg/dL | TOTAL PROTEIN [3]: 5.83 G/DL | URIC ACID [3]: 0.83 mg/dL | ABSOLUTE BASOPHIL [4]: 0 CELLS/uL | ABSOLUTE EOSINOPHIL [4]: 0 CELLS/uL | ABSOLUTE LYMPHOCYTE [4]: 5785.67 CELLS/uL | ABSOLUTE MONOCYTE [4]: 18.33 CELLS/uL | ABSOLUTE SEGMENTED NEUTROPHIL [4]: 262.67 CELLS/uL | BASOPHIL [4]: 0% | EOSINOPHIL [4]: 0% | ERYTHROCYTE COUNT [4]: 5.55 x10E6/uL | HEMATOCRIT [4]: 34.67% | HEMOGLOBIN [4]: 13.1 G/DL | LEUKOCYTE COUNT [4]: 6.07 x10E3/uL | LYMPHOCYTE [4]: 94.33% | MEAN CORPUSCULAR HEMOGLOBIN [4]: 23.57 pg | MEAN CORPUSCULAR HEMOGLOBIN CONCENTRATION [4]: 37.77 G/DL | MEAN CORPUSCULAR VOLUME [4]: 62.47 fL | MONOCYTE [4]: 0.33% | NEUTROPHIL [4]: 5.33% | NUCLEATED RED BLOOD CELLS [4]: 0 /100WBC | PLATELET COUNT [4]: 1109.67 x10E3/uL | ALANINE AMINOTRANSFERASE [4]: 55.33 u/L | ALBUMIN [4]: 4.13 G/DL | ALKALINE PHOSPHATASE [4]: 380.67 u/L | ASPARTATE AMINOTRANSFERASE [4]: 85 u/L | BLOOD UREA NITROGEN [4]: 17.67 mg/dL | CARBON DIOXIDE [4]: 32.67 mmol/L | CHLORIDE [4]: 100 MEQ/L | CHOLESTEROL [4]: 89.67 mg/dL | CREATINE PHOSPHOKINASE [4]: 357 u/L

— ChEMBL document CHEMBL3885881, “DrugMatrix”
